Data: patent US8940774B2, “Tris-Quaternary Ammonium Salts and Methods for Modulating Neuronal Nicotinic Acetylcholine Receptors” (University of Kentucky Research Foundation, priority 2005, dated 2015)

Tests used:
[1] = target: T1, α7-type neuronal nicotinic acetylcholine receptors (Rattus norvegicus, UniProt Q05941); assay: Inhibition of [3H]Methyllycaconitine (MLA) binding assay, rat brain membranes; conditions: % inhibition at 100 nM concentration of analog; rat brain membranes; 2.5 nM [3H]MLA; read-out: Inhibition of [3H]MLA binding
T1 construct: from tissue; host or cells: rat brain membranes (whole brain without cortex, striatum and cerebellum)
T1 sequence (Q05941 23-502): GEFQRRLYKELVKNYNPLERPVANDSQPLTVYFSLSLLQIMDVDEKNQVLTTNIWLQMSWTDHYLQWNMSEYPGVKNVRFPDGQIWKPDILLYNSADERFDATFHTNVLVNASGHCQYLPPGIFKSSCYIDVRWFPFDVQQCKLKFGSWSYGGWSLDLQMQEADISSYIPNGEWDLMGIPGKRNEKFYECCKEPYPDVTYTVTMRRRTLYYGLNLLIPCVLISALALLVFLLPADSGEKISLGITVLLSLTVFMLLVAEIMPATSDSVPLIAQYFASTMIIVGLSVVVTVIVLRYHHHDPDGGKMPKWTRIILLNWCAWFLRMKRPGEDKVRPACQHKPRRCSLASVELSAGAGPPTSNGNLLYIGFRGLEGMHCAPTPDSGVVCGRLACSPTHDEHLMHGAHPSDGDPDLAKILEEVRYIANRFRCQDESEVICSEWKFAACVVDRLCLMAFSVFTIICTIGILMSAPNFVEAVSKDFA
Description: Rat brain was dissected into the whole brain tissue without cortex, striatum and cerebellum and was frozen in liquid nitrogen and stored at −70° C. until use. The brain tissue was homogenized with a Tekmar Polytron (setting 40) in 20 volumes of ice-cold hypotonic buffer (2 mM HEPES, 14.4 mM NaCl, 0.15 mM KCl, 0.2 mM CaCl2 and 0.1 mM MgSO4, pH=7.5). The homogenate was incubated at 37° C. for 10 minutes and centrifuged at 25,000 g for 15 minutes at […] The pellet was washed 3 times more by resuspension in 20 volumes of the same buffer and centrifugation at the above parameters. The final pellet was stored at −20° C. under 4.6 mL of the incubation buffer and was suspended just before the incubation with radioligand.
The binding of [^3H]MLA to probe α7-type neuronal nicotinic acetylcholine receptors was measured using a modification of the method of Davies at al., “Characterisation of the binding of [^3H]methyllycaconitine (MLA): a radioligand for labelling α7-type neuronal nicotinic acetylcholine receptors,” Neuropharmacology, 38, 679-690 (1999). [^3H]MLA (25.4 Ci/mmol) was purchased from Tocris Cookson Ltd., Bristol, U.K. Binding was performed in duplicate, in a final volume of 250 μL of the incubation medium, containing 20 mM HEPES, 144 mM NaCl, 1.5 mM KCl, 2 mM CaCl2, 1 mM MgSO4 and 0.05% BSA, pH=7.5. Reaction was initiated by the addition of 100 μL of membrane suspension to the samples containing a desired concentration of test compounds and […] [^3H]MLA (final concentration) and incubated for 2 hours it room temperature. Total binding was measured in the absence of unlabelled ligand, and nonspecific binding was determined by the presence of 1 μM unlabelled MLA. The binding reaction was terminated by dilution of samples with 3 mL of ice-cold incubation buffer followed by immediate filtration through glass fiber filters (S&S, grade #32, presoaked in 0.5% polyethylenimine) using a Brandel harvester system. Filters were rinsed three times with 3 mL of ice-cold buffer, transferred to scintillation vials and 4 mL of scintillation cocktail was added. Protein was measured using the Bradford dye-binding procedure with bovine serum albumin as the standard.
The tris-quaternary ammonium salts were evaluated for their ability to displace [^3H]MLA binding from rat brain membranes.
(§1) Data are % inhibition at 100 nM concentration of analog for at least 1-3 independent experiments. Specific binding in the [^3H]NIC binding assay is calculated at the difference between the total binding of [^3H]NIC and nonspecific binding in the presence of 10 μM cold nicotine. Specific binding for the [^3H]MLA binding assay is calculated as the difference between the total binding of 2.5 nM [^3H]MLA to the receptors alone and its nonspecific binding in the presence of 1 μM cold MLA. Analog-induced inhibition of nicotine-evoked [^3H]DA release is calculated as a percent of that in the absence of analog.

[2] = tested on: NIC-evoked [3H]DA release from rat striatal slices; assay: Nicotine-evoked [3H]dopamine release assay, superfused rat striatal slices; type: cell-based; conditions: 100 nM analog superfused 60 minutes prior to NIC (10 μM), percent of that in the absence of analog
Description: Rat striatal slices (500 μm thickness, 6-8 mg wet weight) were incubated for 30 minutes in Krebs buffer (118 mM NaCl, 4.7 mM KCl, 1.2 mM MgCl2, 1.0 mM NaH2PO4, 1.3 mM CaCl2, 11.1 mM glucose, 25 mM NaHCO3, 0.11 mM L-ascorbic acid and 0.004 mM disodium EDTA; pH 7.4, and saturated with 95% O2/5% CO2) in a metabolic shaker at 34° C. Slices were rinsed with 15 mL of fresh buffer and incubated for an additional 30 minutes in fresh buffer containing 0.1 μM [^3H]dopamine (DA; 6 slices/3 mL). Subsequently, slices were rinsed with 15 mL of fresh buffer and transferred to a glass superfusion chamber. Slices were superfused (1.0 mL/min) for 60 minutes with Krebs buffer containing nomifensine (10 μM) and pargyline (10 μM) and maintained at 34° C., pH 7.4 with continual aeration (95% O2/5% CO2). Two five minute samples (5 mL each) were collected to determine basal outflow of [^3H]DA. Analogs were added to the superfusion buffer after the collection of the second sample and remained in the buffer until 12 consecutive five minute samples were collected. Subsequently, S-(−)-nicotine (10 μM) was added to the buffer and an additional 12 consecutive five minute samples were collected. At the end of the experiment, each slice was solubilized and the [^3H] content of the tissue determined.
Radioactivity in the superfusate and tissue samples were determined by liquid scintillation spectroscopy. Fractional release for tritium collected in each sample was divided by the total tritium present at the time of sample collection and was expressed as a percentage of total tritium. Basal [^3H] outflow was calculated from the average of the tritium collected in the two five-minute samples just before addition of the analog. The sum of the increase in collected tritium resulting from either exposure to the test compound or exposure to S-(−)-nicotine in the absence cod presence of the test compound equaled total [^3H] overflow. [^3H] Overflow was calculated by subtracting the [^3H] outflow during an equivalent period of prestimulation from the values in samples collected during and after drug exposure. Inasmuch as the radiolabelled compounds were not separated and identified, the tritium in the superfusate is referred to as either [^3H] outflow or [^3H] overflow, rather than [^3H]DA. [^3H] Overflow primarily represents [^3H]DA in the presence of nomifesine and pargyline in the superfusion buffer. […]
Analogs were also evaluated for their ability to inhibit NIC evoked [^3H]DA release. In these experiments, the striatal slices were superfused for 60 minutes with 100 nM concentration of the analogs prior to NIC (10 μM) exposure. Antagonist activity was evaluated by comparing the NIC-evoked [^3H] overflow in the absence and presence of the analogs. The relative order of potency of the analogs for inhibition of NIC-evoked [^3H]DA release from rat striatal slices is illustrated in Table 1.
as §1

Compound | inhibition at 0.1 µM [1] [%] | inhibition at 0.1 µM [2] [%]
CCCCc1ccc[n+](CCCC#Cc2cc(C#CCCC[n+]3cccc(CCCC)c3)cc(C#CCCC[n+]3cccc(CCCC)c3)c2)c1 [GZ551A, 1,3,5-tris-[5-(3-butyl-pyridinium)-pent-1-ynyl]-benzene tribromide] | 30 ± 2 | 52
CN1CCC[C@H]1c1ccc[n+](CCCC#Cc2cc(C#CCCC[n+]3cccc([C@@H]4CCCN4C)c3)cc(C#CCCC[n+]3cccc([C@@H]4CCCN4C)c3)c2)c1 [GZ551B, 1,3,5-tris-{5-[3-(1-methyl-2-S-pyrrolidinyl)pyridinium]-pent-1-ynyl}-benzene tribromide] | 4.2 ± 2.2 | 63
CN1CCC[C@H]1c1ccc[n+](CCCCCc2cc(CCCCC[n+]3cccc([C@@H]4CCCN4C)c3)cc(CCCCC[n+]3cccc([C@@H]4CCCN4C)c3)c2)c1 [GZ558C, 1,3,5-tris-{5-[3-(1-methyl-2-S-pyrrolidinyl)pyridinium]-pentyl}-benzene tribromide] | 7.9 ± 7.1 | 35
